pIC50: −log10 of the molar value. Where two headings read alike, the source gives them in different places.
Key:
CYP2C9 = target: T1, CYP2C9 (Homo sapiens, UniProt P11712); assay: inhibition of cytochrome P450 isoform activity (fluorescence screening); format: biochemical; conditions: screening at 1.1, 3.3 and 10 µM
T1 construct: purchased Corning
Method: (§1) The assays for cytochrome P450 inhibition facilitate the identification of drug candidates with a lower potential for drug-drug interactions. In vitro experiments conducted to determine whether a drug inhibits a specific CYP enzyme involve an incubation of the drug with probe substrates for the CYP enzymes.
(§2) Recombinant cytochrome P450 isoforms available for the assay: CYP1A2, CYP2B6, CYP2C9, CYP2C19, CYP2D6 and CYP3A4 isoform with various probe substrates enabling fluorescence detection.
(§3) The examined compound was prepared as a 10 mM stock solution in DMSO. The following three concentrations of the test compound were used for screening determination: 1.1, 3.3 and 10 μM. […] Plates filled with solution of cofactors (NADP, G6P, MgCl2, G6PDH) as well as examined compound were scanned with a fluorescence plate reader in order to eliminate false results originating from autofluorescence of the test compounds. […] At the end of the incubation, the reaction was stopped and the fluorescence of the product was determined continuously with the specific for every product excitation as well as emission values with the use of multiwell plate scanner equipped with fluorescence measurement (Fluorescence EnSpire Multimode Plate Reader).

CYP2C19 = target: T2, CYP2C19 (Homo sapiens, UniProt P33261); assay: as above; format: biochemical; conditions: screening at 1.1, 3.3 and 10 µM
T2 construct: purchased Corning
T2 sequence (P33261 whole entry): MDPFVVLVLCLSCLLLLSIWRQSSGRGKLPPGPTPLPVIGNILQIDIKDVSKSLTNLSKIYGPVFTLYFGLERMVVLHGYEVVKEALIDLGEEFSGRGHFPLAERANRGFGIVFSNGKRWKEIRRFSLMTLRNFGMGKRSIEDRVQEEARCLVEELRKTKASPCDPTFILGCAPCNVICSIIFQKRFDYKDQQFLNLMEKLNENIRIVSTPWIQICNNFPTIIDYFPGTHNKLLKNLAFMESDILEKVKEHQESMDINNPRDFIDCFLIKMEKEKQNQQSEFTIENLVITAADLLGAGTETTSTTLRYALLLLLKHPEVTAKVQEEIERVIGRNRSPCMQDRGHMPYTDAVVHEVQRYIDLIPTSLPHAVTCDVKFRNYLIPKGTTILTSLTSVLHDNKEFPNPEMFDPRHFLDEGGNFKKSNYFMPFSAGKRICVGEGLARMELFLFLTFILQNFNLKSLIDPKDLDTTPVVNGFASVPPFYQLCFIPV
Method: as §1, §2, §3

[1] = pharmacokinetic study, plasma and brain, after i.p. administration; format: in vivo, mice (male Albino Swiss); conditions: mouse, 10 mg/kg i.p.; for AUC / Cmax / half-life / Tmax: male, Albino Swiss, ip; for AUC: read-out: AUC (area under the curve); for Cmax: read-out: Cmax (maximum concentration); for half-life: read-out: T1/2 (terminal elimination half-life) (converted)
Method: The pharmacokinetic properties and brain uptake of 52 were further determined in mice after i.p. administration. The compound was administered at a dose of 10 mg/kg in 3% DMSO + 20% Captisol in water. The concentration of 52 was monitored in the plasma and the brain at six time points over 6 h (Figure 5).
The method described below was successfully applied to a pharmacokinetic study of 52 in mice (male Albino Swiss) after i.p. injection. Compound 52 was administered to mice at a dose of 10 mg/kg i.p. At 0.25, 0.50, 1.0, 2.0, 4.0, and 6.0 h (three animals were used for one time point) the mice were anaesthetised by the use of Morbital (Biowet, Puławy, Poland), and the blood was collected from the portal vein to tubes containing 5% EDTA. The mice were then perfused with 0.1 M PBS to remove remaining blood from the body, and the brains were taken out for the analysis. Blood was centrifuged at 2000 rpm for 10 min at 4 °C, and the plasma was collected and frozen at −80 °C for further analysis. Plasma and tissue samples from all drug-treated animals were thawed at room temperature prior to use. Standard protocol of sample preparation: 200 µL of acetonitrile was added to the Eppendorf tubes with 50 µL of studied plasma samples or tissue homogenate. Samples were mixed for 5 min on a mixer at 25 °C and 1400 rpm. Tubes were then centrifuged at 2000 × g for 15 min at 4 °C. A total of 180 µL of each supernatant was transferred to a plate well. Finally, each sample was injected onto the LC-MS column. Calibration curve serial dilution method: Plasma was spiked with a standard at different concentrations. Acetonitrile was added. After mixing and centrifugation, the supernatant was collected.
Plasma and tissue samples from all drug-treated animals at selected time points were analysed using a previously developed non-validated LC-MS/MS method. […] LC-MS analysis was carried out on a Bruker amaZon SL mass spectrometer using positive/negative ion ESI mode. Chromatographic separation was achieved on an Ascentis Express C18 column (5 cm × 2.1 mm, […], Supelco Technologies) at room temperature with a thermostatted column oven. A gradient elution of eluents A (acetonitrile (LiChrosolv, Reag. Ph Eur) + 0.1% formic acid (Sigma Aldrich, 98–100%)) and B (water +0.1% formic acid) was used for separation. The flow rate was set at 1 ml/min. The injection volume was 20 µL, and the time of injection was 4 min.

T1 sequence (P11712 whole entry, canonical isoform): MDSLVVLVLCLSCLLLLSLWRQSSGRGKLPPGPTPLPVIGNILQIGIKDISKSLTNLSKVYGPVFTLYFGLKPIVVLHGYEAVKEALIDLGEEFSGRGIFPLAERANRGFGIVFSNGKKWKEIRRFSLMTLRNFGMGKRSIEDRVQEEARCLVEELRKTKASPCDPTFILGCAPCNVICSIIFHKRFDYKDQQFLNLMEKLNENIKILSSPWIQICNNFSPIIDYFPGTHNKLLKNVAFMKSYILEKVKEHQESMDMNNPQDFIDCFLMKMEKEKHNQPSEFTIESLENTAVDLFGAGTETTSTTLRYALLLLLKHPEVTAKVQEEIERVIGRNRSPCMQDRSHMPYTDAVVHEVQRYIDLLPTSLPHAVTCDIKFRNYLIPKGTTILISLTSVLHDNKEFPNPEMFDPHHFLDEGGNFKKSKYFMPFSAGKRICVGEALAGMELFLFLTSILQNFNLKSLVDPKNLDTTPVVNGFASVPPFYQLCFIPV

Question: With `O=C(Nc1ccc(-c2noc(-c3ccccc3Cl)n2)c(Cl)c1)c1ccccn1` [Compound 52, N-(3-chloro-4-(5-(2-chlorophenyl)-1,2,4-oxadiazol-3-yl)phenyl)picolinamide] as the compound, how does the pIC50 (CYP2C9) read?
Answer: 5.00 to 5.48

Question: What about the pIC50 (CYP2C19) of the same compound?
Answer: 5.00 to 5.48

Question: And the maximum brain concentration ([1]; brain)?
Answer: 949.76 ng/mL

Question: And the AUC ([1]; brain)?
Answer: 5.64 µM·h

Question: What about the Cmax ([1]; brain) of the same compound?
Answer: 2120 nM

Question: And the half-life ([1]; brain)?
Answer: 136 min

Question: What about the Tmax ([1]; brain, read-out: Tmax (converted)) of the same compound?
Answer: 30 min

Question: And the AUC ([1]; plasma)?
Answer: 0.37 µM·h

Question: And the Cmax ([1]; plasma)?
Answer: 540 nM

Question: And the half-life ([1]; plasma)?
Answer: 66 min

Question: What about the Tmax ([1]; plasma, read-out: Tmax (time at maximum observed concentration)) of the same compound?
Answer: 15 min

Question: What about the maximum plasma concentration ([1]; plasma) of the same compound?
Answer: 243.22 ng/mL
